Data: PubChem BioAssay AID256 (DTP/NCI, 2004)
Values joined by “and” are separate entries in the source; they are usually repeats but may differ in a detail not shown here. Equal entries are not always repeated. Inconclusive results and toxic doses are left out. Rule for the calls: active = survival T/C of 150% or more; inactive = T/C below 125% in these data.

Test system: CD2F1 mice, L1210 leukemia ip, survival T/C
Test: NCI In Vivo Anticancer Drug Screen. Data for tumor model L1210 Leukemia (intraperitoneal) in CD2F1 (CDF1) mice
Conditions: endpoint: mean survival time, higher = longer survival
How it was run: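 Implant tumor; dose compound or vehicle; measure endpoint in both groups; report treated divided by control.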

[1] = dose: 12.5 mg/kg/injection, schedule: Q01DX009 (ip), vehicle: saline with Tween-80
[2] = dose: 25.0 mg/kg/injection, schedule: Q01DX009 (ip), vehicle: saline with Tween-80
[3] = dose: 50.0 mg/kg/injection, schedule: Q01DX009 (ip), vehicle: saline with Tween-80
[4] = dose: 12.5 mg/kg/injection, schedule: Q04DX003 (ip), vehicle: saline with Tween-80
[5] = dose: 25.0 mg/kg/injection, schedule: Q04DX003 (ip), vehicle: saline with Tween-80
[6] = dose: 100.0 mg/kg/injection, schedule: Q04DX003 (ip), vehicle: saline with Tween-80
[7] = dose: 200.0 mg/kg/injection, schedule: Q04DX003 (ip), vehicle: saline with Tween-80
[8] = dose: 400.0 mg/kg/injection, schedule: Q04DX003 (ip), vehicle: saline with Tween-80
[9] = dose: 200.0 mg/kg/injection, schedule: Q01DX009 (ip), vehicle: saline with Tween-80
[10] = dose: 100.0 mg/kg/injection, schedule: Q01DX001 (ip), vehicle: saline with Tween-80
[11] = dose: 200.0 mg/kg/injection, schedule: Q01DX001 (ip), vehicle: saline with Tween-80
[12] = dose: 400.0 mg/kg/injection, schedule: Q01DX001 (ip), vehicle: saline with Tween-80
[13] = dose: 100.0 mg/kg/injection, schedule: Q01DX001 (ip), vehicle: Klucel (hydroxypropylcellulose) (HPC)
[14] = dose: 200.0 mg/kg/injection, schedule: Q01DX001 (ip), vehicle: Klucel (hydroxypropylcellulose) (HPC)
[15] = dose: 400.0 mg/kg/injection, schedule: Q01DX001 (ip), vehicle: Klucel (hydroxypropylcellulose) (HPC)
[16] = dose: 100.0 mg/kg/injection, schedule: Q01DX001 (ip), vehicle: saline
[17] = dose: 100.0 mg/kg/injection, schedule: Q01DX009 (ip), vehicle: saline with Tween-80
[18] = dose: 400.0 mg/kg/injection, schedule: Q01DX009 (ip), vehicle: saline with Tween-80
[19] = dose: 100.0 mg/kg/injection, schedule: Q04DX002 (ip), vehicle: saline with Tween-80
[20] = dose: 200.0 mg/kg/injection, schedule: Q04DX002 (ip), vehicle: saline with Tween-80
[21] = dose: 25.0 mg/kg/injection, schedule: Q04DX003 (ip), vehicle: saline
[22] = dose: 50.0 mg/kg/injection, schedule: Q04DX003 (ip), vehicle: saline
[23] = dose: 100.0 mg/kg/injection, schedule: Q04DX003 (ip), vehicle: saline
[24] = dose: 200.0 mg/kg/injection, schedule: Q04DX003 (ip), vehicle: saline
[25] = dose: 200.0 mg/kg/injection, schedule: Q01DX001 (ip), vehicle: saline

Measured: T/C

O=c1nc(Oc2ccccc2)nc2ncccn12
inactive: dose: 3.12 mg/kg/injection, schedule: Q01DX009 (ip), vehicle: saline with Tween-80 100 % of control and 108 % of control | dose: 6.25 mg/kg/injection, schedule: Q01DX009 (ip), vehicle: saline with Tween-80 100 % of control and 101 % of control | [1] 97 % of control and 101 % of control | [2] 98 % of control and 99 % of control | [3] 97 % of control and 102 % of control

N#[N+]c1c(C(=O)O)[nH]c(=O)[nH]c1=O
inactive: [1] 100 % of control | [4] 101 % of control | [2] 91 % of control | [5] 102 % of control | [3] 96 % of control

N#CC1(c2ccc(Cl)cc2)CCC1
inactive: dose: 100.0 mg/kg/injection, schedule: Q01DX009 (ip), vehicle: saline sonified 102 % of control | [6] 101 % of control | dose: 200.0 mg/kg/injection, schedule: Q01DX009 (ip), vehicle: saline sonified 92 % of control | [7] 101 % of control | dose: 400.0 mg/kg/injection, schedule: Q01DX009 (ip), vehicle: saline sonified 105 % of control | [8] 100 % of control

CC(=O)Oc1cccc2c1C(=O)C1(O)C(C=O)=CC3OC(C)(C)OC2(C)C31 (stereo not drawn)
inactive: dose: 75.0 mg/kg/injection, schedule: Q01DX001 (ip), vehicle: other 102 % of control | dose: 150.0 mg/kg/injection, schedule: Q01DX001 (ip), vehicle: other 108 % of control | dose: 300.0 mg/kg/injection, schedule: Q01DX001 (ip), vehicle: other 103 % of control

NC(=O)N/N=C/c1cccs1
inactive: [3] 89 % of control | [9] 97 % of control | [7] 87 % of control | [8] 91 % of control

COCCOCCOc1cc(-c2c(OCCOCCOC)ccc3ccccc23)c2ccccc2c1
inactive: [10] 100 % of control | [11] 100 % of control | [12] 100 % of control

Nc1nc(N)c2nc3c(nc2n1)CCCC3
inactive: [10] 95 % of control | [11] 87 % of control | [12] 87 % of control

CC1(C)OC2C(COC(=O)Oc3ccccc3)OC(n3cnc4c(=O)[nH]c(N)nc43)C2O1 (stereo not drawn)
inactive: [13] 92 % of control | [14] 93 % of control | [15] 92 % of control

CC(=O)Nc1cccc(N(CCOS(C)(=O)=O)CCOS(C)(=O)=O)c1
inactive: dose: 0.5 mg/kg/injection, schedule: Q01DX009 (ip), vehicle: saline 122 % of control

CC1(C)CC(=O)C(C)(C)C(=O)C1
inactive: [16] 100 % of control

C=CCC(C#N)(CC=C)C(=O)OCC
inactive: dose: 50.0 mg/kg/injection, schedule: Q01DX001 (ip), vehicle: Klucel (hydroxypropylcellulose) (HPC) 102 % of control | [13] 96 % of control | [14] 102 % of control

N/N=C(/C(=O)c1ccccc1)c1ccccc1
inactive: [17] 95 % of control | [9] 97 % of control | [18] 95 % of control

NC(=O)CSc1ccc(Cl)cc1
inactive: [17] 113 % of control | [9] 94 % of control | [18] 102 % of control

COC(=O)Nc1ccc(C)cc1[N+](=O)[O-]
inactive: dose: 100.0 mg/kg/injection, schedule: Q04DX003 (ip), vehicle: other 106 % of control | dose: 200.0 mg/kg/injection, schedule: Q04DX003 (ip), vehicle: other 106 % of control | dose: 400.0 mg/kg/injection, schedule: Q04DX003 (ip), vehicle: other 109 % of control

CN(C)c1nc(-c2ccncc2)nc(N2CCOCC2)n1
inactive: [19] 92 % of control

CCOC(=O)C(=O)C1CCc2c(ccc3ccccc23)C1=O (stereo not drawn)
inactive: dose: 50.0 mg/kg/injection, schedule: Q04DX002 (ip), vehicle: saline with Tween-80 93 % of control | [13] 91 % of control | [19] 96 % of control | [14] 93 % of control | [20] 96 % of control

COc1ccc(OC)c(C2N(Cc3ccccc3N(C)C)CCCN2Cc2ccccc2N(C)C)c1
inactive: [6] 92 % of control | [7] 88 % of control

Nc1n[nH]c(=S)n1-c1ccc(Cl)cc1
inactive: dose: 100.0 mg/kg/injection, schedule: Q01DX009 (ip), vehicle: acetone 97 % of control | dose: 200.0 mg/kg/injection, schedule: Q01DX009 (ip), vehicle: acetone 101 % of control | dose: 400.0 mg/kg/injection, schedule: Q01DX009 (ip), vehicle: acetone 106 % of control

Cc1cc(C)[nH]c(=S)n1.[Pt]
inactive: dose: 3.12 mg/kg/injection, schedule: Q04DX003 (ip), vehicle: saline with Tween-80 104 % of control | dose: 3.12 mg/kg/injection, schedule: Q04DX003 (ip), vehicle: saline 120 % of control and 108 % of control | dose: 6.25 mg/kg/injection, schedule: Q04DX003 (ip), vehicle: saline with Tween-80 102 % of control | dose: 6.25 mg/kg/injection, schedule: Q04DX003 (ip), vehicle: saline 117 % of control and 96 % of control | [4] 101 % of control | dose: 12.5 mg/kg/injection, schedule: Q04DX003 (ip), vehicle: saline 96 % of control | [5] 98 % of control | [21] 102 % of control | dose: 50.0 mg/kg/injection, schedule: Q04DX003 (ip), vehicle: saline with Tween-80 101 % of control | [22] 96 % of control and 97 % of control | [6] 101 % of control | [23] 120 % of control and 96 % of control | [7] 107 % of control | [24] 106 % of control

C(=Nc1cccc2ccccc12)c1ccc2c(c1)OCO2
inactive: [13] 98 % of control | dose: 100.0 mg/kg/injection, schedule: Q01DX009 (ip), vehicle: Klucel (hydroxypropylcellulose) (HPC) 91 % of control | [14] 93 % of control | dose: 200.0 mg/kg/injection, schedule: Q01DX009 (ip), vehicle: Klucel (hydroxypropylcellulose) (HPC) 96 % of control | [15] 96 % of control | dose: 400.0 mg/kg/injection, schedule: Q01DX009 (ip), vehicle: Klucel (hydroxypropylcellulose) (HPC) 96 % of control

C#CCNc1ncnc2c1ncn2C1OC(CO)C(O)C1O (stereo not drawn)
inactive: dose: 12.5 mg/kg/injection, schedule: Q01DX005 (ip), vehicle: other 96 % of control | dose: 25.0 mg/kg/injection, schedule: Q01DX005 (ip), vehicle: other 97 % of control | dose: 50.0 mg/kg/injection, schedule: Q01DX005 (ip), vehicle: other 111 % of control | dose: 100.0 mg/kg/injection, schedule: Q01DX005 (ip), vehicle: other 114 % of control | dose: 200.0 mg/kg/injection, schedule: Q01DX005 (ip), vehicle: other 111 % of control

CCOC(=O)c1cnc2c(cnn2CC)c1NN=C(C)C
inactive: [23] 105 % of control | [24] 105 % of control

OCC1OC(n2cc(I)c3c(Cl)ncnc32)C(O)C1O (stereo not drawn)
inactive: [16] 98 % of control | [25] 110 % of control | dose: 400.0 mg/kg/injection, schedule: Q01DX001 (ip), vehicle: saline 110 % of control

Nc1ncc2c(n1)SCC2
inactive: [25] 119 % of control

O=Cc1ccc(OC(=O)Nc2cccc3ccccc23)cc1
inactive: [19] 91 % of control | [20] 98 % of control | dose: 400.0 mg/kg/injection, schedule: Q04DX002 (ip), vehicle: saline with Tween-80 87 % of control

O=C(C(=Nc1ccccc1)c1ccccc1)c1ccccc1
inactive: [3] 100 % of control | [17] 97 % of control | [9] 97 % of control

CC(C)c1ccc(C(=O)O)cc1S(=O)(=O)Cl
inactive: [21] 98 % of control | [22] 109 % of control | [23] 100 % of control and 107 % of control

Cc1cc2nc3c(nc2cc1C)-c1ccccc1C3=O
inactive: [6] 94 % of control | [7] 93 % of control | [8] 94 % of control

COc1ccc([Se][Se]c2ccc(OC)cc2NC(C)=O)c(NC(C)=O)c1
inactive: [3] 97 % of control | [17] 101 % of control | [6] 89 % of control | [9] 105 % of control | [7] 87 % of control

CC(=O)OC1CCC2(C)C(CCC3C2CCC2(C)C3CC3OC4(CCC(C)CO4)C(C)C32)C1 (stereo not drawn)
inactive: [6] 95 % of control and 92 % of control | [7] 89 % of control and 90 % of control and 95 % of control | [8] 87 % of control and 90 % of control
